Laboratory results: patent publication US20260365647A1, “AKT1 MODULATORS” (Alterome Therapeutics, Inc., priority 2022, published 2026)

Molecular target: T1, AKT1-E17K (Homo sapiens, UniProt P31749, E17K)
T1 construct: host or cells: HEK-293 (ATCC CRL-1573)
Assay: NanoBRET Target Engagement (TE) Assay
Format: cell-based
Source text: The NanoBRET™ Target Engagement (TE) Intracellular Kinase Assays are based on the NanoBRET™ System (Promega Corporation), an energy transfer technique designed to measure molecular proximity in living cells. The NanoBRET™ TE Assays measure the apparent affinity of test compounds by competitive displacement of the NanoBRET™ tracer compound, which is a cell permeable molecule engineered to be reversibly bound to a NanoLuc® luciferase-kinase fusion expressed in cells. For compound screening, when a test compound binds to the selected kinase, the BRET signal is attenuated. […] All cells were evaluated for viability prior to transfection and optimization of the transfection was done prior to experimentation. […] Following transfection, cells were washed and resuspended in Opti-MEM. NanoBRET assays were performed in white, 384-well plates (Corning) at a density of […]. All example compounds were prepared as concentrated stock solutions in DMSO (Sigma-Aldrich). Compounds are dissolved in DMSO to make 10 mM stock solution. […] A Labcyte ECHO 550 compound dispenser was used to facilitate compound transfer directly to cells. Cells were equilibrated for 2 hr with energy transfer probes and example compound prior to BRET measurements. […] For target engagement analysis, the energy transfer probes were added to the cells at concentrations optimized for the target in question (AKT E17K). Following compound incubation, NanoBRET NanoGlo Substrate (Promega Cat #N157D) and Extracellular Nanoluc Inhibitor (Promega Cat #N235C) was added according to the manufacturer's recommended protocol, and luminescence was measured on Envision Reader (Perkin Elmer) Multimode Luminometer equipped with 450 nmBPfilter (donor) and 600 nmLPfilter (acceptor), using 0.5 s integration time. Milli-BRET units (mBU) are calculated by multiplying the raw BRET values by 1000. Apparent tracer affinity values (EC50) were determined using the sigmoidal dose-response (variable slope). Competitive displacement data were then plotted and data were fit to determine the EC50 value for each example compound.

T1 sequence (P31749 whole entry E17K): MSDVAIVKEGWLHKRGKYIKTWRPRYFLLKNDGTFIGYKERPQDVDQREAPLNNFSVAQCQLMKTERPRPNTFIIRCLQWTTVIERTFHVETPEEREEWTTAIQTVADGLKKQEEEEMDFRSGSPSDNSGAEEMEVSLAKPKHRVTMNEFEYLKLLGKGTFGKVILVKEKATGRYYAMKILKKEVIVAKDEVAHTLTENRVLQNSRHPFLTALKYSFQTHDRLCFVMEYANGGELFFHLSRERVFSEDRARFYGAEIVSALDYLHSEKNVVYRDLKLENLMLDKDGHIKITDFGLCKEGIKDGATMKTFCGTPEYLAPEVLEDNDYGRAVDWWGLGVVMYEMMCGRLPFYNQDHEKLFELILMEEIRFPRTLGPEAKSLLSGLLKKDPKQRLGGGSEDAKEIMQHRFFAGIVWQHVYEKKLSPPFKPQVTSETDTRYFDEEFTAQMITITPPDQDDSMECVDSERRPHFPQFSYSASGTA

Question: With Nc1ncccc1-c1nc2ccc(N3CCOCC3)nc2n1-c1ccc(CN2CCN(C(=O)c3ccc(C=O)c(O)c3)CC2)cc1 [Example 33, 4-(4-(4-(2-(2-Aminopyridin-3-yl)-5-morpholino-3H-imidazo[4,5-b]pyridin-3-yl)benzyl)piperazine-1-carbonyl)-2-hydroxybenzaldehyde] as the compound, how does the IC50 read?
Answer: Its IC50 is > 600 nM.

Question: For Nc1ncccc1-c1nc2ccc(-c3ccccc3)nc2n1-c1ccc(CN2CC[C@@H](NC(=O)c3ccc(O)c(C=O)c3)C2)cc1 [Example 59, (R)—N-(1-(4-(2-(2-aminopyridin-3-yl)-5-phenyl-3H-imidazo[4,5-b]pyridin-3-yl)benzyl)pyrrolidin-3-yl)-3-formyl-4-hydroxybenzamide], which IC50 is on record?
Answer: Its IC50 is < 15 nM.

Question: Which IC50 does the source give for Nc1ncccc1-c1nc2ccc(-c3ccccc3)nc2n1-c1ccc(CN2CCN(c3cccc(C=O)c3O)CC2)cc1 [Example 23, 3-(4-(4-(2-(2-aminopyridin-3-yl)-5-phenyl-3H-imidazo[4,5-b]pyridin-3-yl)benzyl)piperazin-1-yl)-2-hydroxybenzaldehyde] here?
Answer: The IC50 was 60 to 600 nM.

Question: How did the IC50 turn out when Nc1ncccc1-c1nc2ccc(-c3ccccc3)nc2n1-c1ccc(CN2CCC3(CC2)CCN(C(=O)c2ccc(C=O)c(O)c2)CC3)cc1 [Example 152, 4-(9-(4-(2-(2-aminopyridin-3-yl)-5-phenyl-3H-imidazo[4,5-b]pyridin-3-yl)benzyl)-3,9-diazaspiro[5.5]undecane-3-carbonyl)-2-hydroxybenzaldehyde] was run?
Answer: The IC50 was 60 to 600 nM.

Question: How did the IC50 turn out when Nc1ncccc1-c1nc2ccc(-c3ccccc3)nc2n1-c1ccc(CN2CCC3(CC2)CC(NC(=O)c2ccc(O)c(C=O)c2)C3)cc1 [Example 68, N-(7-(4-(2-(2-Aminopyridin-3-yl)-5-phenyl-3H-imidazo[4,5-b]pyridin-3-yl)benzyl)-7-azaspiro[3.5]nonan-2-yl)-3-formyl-4-hydroxybenzamide] was run?
Answer: Its IC50 is 15 to 60 nM.

Question: With Nc1ncccc1-c1nc2ccc(-c3cccc(Cl)c3)nc2n1-c1ccc(CN2CCN(C(=O)c3ccc(O)c(C=O)c3)CC2)cc1 [Example 42, 5-(4-(4-(2-(2-Aminopyridin-3-yl)-5-(3-chlorophenyl)-3H-imidazo[4,5-b]pyridin-3-yl)benzyl)piperazine-1-carbonyl)-2-hydroxybenzaldehyde] as the compound, how does the IC50 read?
Answer: Its IC50 is 60 to 600 nM.

Question: Which IC50 does the source give for Nc1ncccc1-c1nc2ccc(-c3ccccc3)nc2n1-c1ccc(CN2C[C@@H]3CN(c4ccc(C=O)c(O)c4)C[C@@H]3C2)cc1 [Example 133, 4-((3aR,6aS)-5-(4-(2-(2-Aminopyridin-3-yl)-5-phenyl-3H-imidazo[4,5-b]pyridin-3-yl)benzyl)hexahydropyrrolo[3,4-c]pyrrol-2(1H)-yl)-2-hydroxybenzaldehyde] here?
Answer: Its IC50 is 60 to 600 nM.

Question: How did the IC50 turn out when Nc1ncccc1-c1nc2ccc(N3CCOCC3)nc2n1-c1ccc(CN2CCC(NC(=O)c3ccc(O)c(C=O)c3)CC2)cc1 [Example 52, N-(1-(4-(2-(2-Aminopyridin-3-yl)-5-morpholino-3H-imidazo[4,5-b]pyridin-3-yl)benzyl)piperidin-4-yl)-3-formyl-4-hydroxybenzamide] was run?
Answer: Its IC50 is 15 to 60 nM.

Question: Nc1ncccc1-c1nc2ccc(-c3ccccc3)nc2n1-c1ccc(CN2CC3(CCN(c4ccc(C=O)c(O)c4)C3)C2)cc1 [Example 94, 4-(2-(4-(2-(2-Aminopyridin-3-yl)-5-phenyl-3H-imidazo[4,5-b]pyridin-3-yl)benzyl)-2,6-diazaspiro[3.4]octan-6-yl)-2-hydroxybenzaldehyde] was tested. Which IC50 did it give?
Answer: The IC50 was 15 to 60 nM.

Question: With C[C@H](NC(=O)c1ccc(O)c(C=O)c1)c1ccc(-n2c(-c3cccnc3N)nc3ccc(-c4ccccc4)nc32)cc1 [Example 140, (S)—N-(1-(4-(2-(2-Aminopyridin-3-yl)-5-phenyl-3H-imidazo[4,5-b]pyridin-3-yl)phenyl)ethyl)-3-formyl-4-hydroxybenzamide] as the compound, how does the IC50 read?
Answer: The IC50 was 15 to 60 nM.

Question: For Nc1ncccc1-c1nc2ccc(-c3cccc(=O)[nH]3)nc2n1-c1ccc(CN2CCN(C(=O)c3ccc(C=O)c(O)c3)CC2)cc1 [Example 46, 4-(4-(4-(2-(2-Aminopyridin-3-yl)-5-(6-oxo-1,6-dihydropyridin-2-yl)-3H-imidazo[4,5-b]pyridin-3-yl)benzyl)piperazine-1-carbonyl)-2-hydroxybenzaldehyde], which IC50 is on record?
Answer: The IC50 was > 600 nM.

Question: N#Cc1ccccc1-c1ccc2nc(-c3cccnc3N)n(-c3ccc(CN4CCN(C(=O)c5ccc(C=O)c(O)c5)CC4)cc3)c2n1 [Example 37, 2-(2-(2-Aminopyridin-3-yl)-3-(4-((4-(4-formyl-3-hydroxybenzoyl)piperazin-1-yl)methyl)phenyl)-3H-imidazo[4,5-b]pyridin-5-yl)benzonitrile] was tested. Which IC50 did it give?
Answer: Its IC50 is 60 to 600 nM.

Question: With Nc1ncccc1-c1nc2ccc(-c3ccccc3)nc2n1-c1ccc(CN2C3CCC2CN(C(=O)c2ccc(O)c(C=O)c2)C3)cc1 [Example 112, 5-(8-(4-(2-(2-Aminopyridin-3-yl)-5-phenyl-3H-imidazo[4,5-b]pyridin-3-yl)benzyl)-3,8-diazabicyclo[3.2.1]octane-3-carbonyl)-2-hydroxybenzaldehyde] as the compound, how does the IC50 read?
Answer: Its IC50 is > 600 nM.

Question: Which IC50 does the source give for Nc1ncccc1-c1nc2ccc(-c3ccccc3)nc2n1-c1ccc(COc2ccc(C=O)c(O)c2)cc1 [Example 138, 4-((4-(2-(2-Aminopyridin-3-yl)-5-phenyl-3H-imidazo[4,5-b]pyridin-3-yl)benzyl)oxy)-2-hydroxybenzaldehyde] here?
Answer: The IC50 was 60 to 600 nM.

Question: With Nc1ncccc1-c1nc2ccc(-c3ccccc3F)nc2n1-c1ccc(CN2CCN(C(=O)c3ccc(O)c(C=O)c3)CC2)cc1 [Example 141, 5-(4-(4-(2-(2-Aminopyridin-3-yl)-5-(2-fluorophenyl)-3H-imidazo[4,5-b]pyridin-3-yl)benzyl)piperazine-1-carbonyl)-2-hydroxybenzaldehyde] as the compound, how does the IC50 read?
Answer: Its IC50 is 15 to 60 nM.

Question: With Nc1ncccc1-c1nc2ccc(-c3ccccc3)nc2n1-c1ccc(CN2CCC3(CCCN(C(=O)c4ccc(C=O)c(O)c4)C3)C2)cc1 (stereo not drawn) [Example 87, 4-(2-(4-(2-(2-Aminopyridin-3-yl)-5-phenyl-3H-imidazo[4,5-b]pyridin-3-yl)benzyl)-2,7-diazaspiro[4.5]decane-7-carbonyl)-2-hydroxybenzaldehyde] as the compound, how does the IC50 read?
Answer: Its IC50 is 60 to 600 nM.

Question: Nc1ncccc1-c1nc2ccc(-c3ccccc3)nc2n1-c1ccc(CN2CCC[C@@H](NC(=O)c3ccc(O)c(C=O)c3)C2)cc1 [Example 58, (R)—N-(1-(4-(2-(2-Aminopyridin-3-yl)-5-phenyl-3H-imidazo[4,5-b]pyridin-3-yl)benzyl)piperidin-3-yl)-3-formyl-4-hydroxybenzamide] was tested. Which IC50 did it give?
Answer: Its IC50 is 15 to 60 nM.

Question: With Nc1ncccc1-c1nc2ccc(-c3ccccc3)nc2n1-c1ccc(CN2CCC(Nc3cccc(O)c3C=O)CC2)cc1 [Example 51, 2-((1-(4-(2-(2-Aminopyridin-3-yl)-5-phenyl-3H-imidazo[4,5-b]pyridin-3-yl)benzyl)piperidin-4-yl)amino)-6-hydroxybenzaldehyde] as the compound, how does the IC50 read?
Answer: The IC50 was 60 to 600 nM.

Question: Nc1ncccc1-c1nc2ccc(-c3ccc[nH]c3=O)nc2n1-c1ccc(CN2CCN(C(=O)c3ccc(C=O)c(O)c3)CC2)cc1 [Example 15, 4-(4-(4-(2-(2-Aminopyridin-3-yl)-5-(2-oxo-1,2-dihydropyridin-3-yl)-3H-imidazo[4,5-b]pyridin-3-yl)benzyl)piperazine-1-carbonyl)-2-hydroxybenzaldehyde] was tested. Which IC50 did it give?
Answer: Its IC50 is > 600 nM.

Question: Which IC50 does the source give for CCN(C(=O)c1ccc(O)c(C=O)c1)C1CCN(Cc2ccc(-n3c(-c4cccnc4N)nc4ccc(-c5ccccc5)nc43)cc2)CC1 [Example 13, N-(1-(4-(2-(2-Aminopyridin-3-yl)-5-phenyl-3H-imidazo[4,5-b]pyridin-3-yl)benzyl)piperidin-4-yl)-N-ethyl-3-formyl-4-hydroxybenzamide] here?
Answer: Its IC50 is 60 to 600 nM.

Question: How did the IC50 turn out when Nc1ncccc1-c1nc2ccc(-c3ccccc3)nc2n1-c1ccc(CN2CCC3(CCCN(c4ccc(C=O)c(O)c4)C3)C2)cc1 (stereo not drawn) [Example 88, 4-(2-(4-(2-(2-Aminopyridin-3-yl)-5-phenyl-3H-imidazo[4,5-b]pyridin-3-yl)benzyl)-2,7-diazaspiro[4.5]decan-7-yl)-2-hydroxybenzaldehyde] was run?
Answer: Its IC50 is 60 to 600 nM.

Question: For Nc1ncccc1-c1nc2ccc(-c3ccccc3)nc2n1-c1ccc(CN2CCC[C@@H](NC(=O)c3ccc(C=O)c(O)c3)C2)cc1 [Example 63, (R)—N-(1-(4-(2-(2-Aminopyridin-3-yl)-5-phenyl-3H-imidazo[4,5-b]pyridin-3-yl)benzyl)piperidin-3-yl)-4-formyl-3-hydroxybenzamide], which IC50 is on record?
Answer: The IC50 was 60 to 600 nM.

Question: Which IC50 does the source give for Nc1ncccc1-c1nc2ccc(-c3ccccc3)nc2n1-c1ccc(CN2CCC3(CCN(C(=O)c4ccc(C=O)c(O)c4)CC3)C2)cc1 [Example 90, 4-(2-(4-(2-(2-Aminopyridin-3-yl)-5-phenyl-3H-imidazo[4,5-b]pyridin-3-yl)benzyl)-2,8-diazaspiro[4.5]decane-8-carbonyl)-2-hydroxybenzaldehyde] here?
Answer: The IC50 was 60 to 600 nM.

Question: Nc1ncccc1-c1nc2ccc(-c3ccccc3)nc2n1-c1ccc(CN2CCC3(CC2)CCN(c2ccc(C=O)c(O)c2)C3)cc1 [Example 76, 4-(8-(4-(2-(2-Aminopyridin-3-yl)-5-phenyl-3H-imidazo[4,5-b]pyridin-3-yl)benzyl)-2,8-diazaspiro[4.5]decan-2-yl)-2-hydroxybenzaldehyde] was tested. Which IC50 did it give?
Answer: The IC50 was 60 to 600 nM.
